Activity calls are given as the source filed them.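 Rule for the calls: active = EC50 no more than a set limit of log units above the highest dose; inactive = the rest.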 Where only a bound is given, the exact number is not on record here.

The assay concerns the target S. pyogenes SKKanGAS, kanamycin survival, BacTiterGlo, 6 h. Put plainly: S. pyogenes SKKanGAS kanamycin growth inhibitors – SKKanGAS strain, luminescence, dose confirmation, streptokinase promoter inhibitor project, dose response (AID 1902).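 Note: lower survival reflects blocked streptokinase promoter driving kanamycin resistance gene.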
As to `CCCC(=O)NC(c1ccc(C)cc1)c1ccc2cccnc2c1O` (stereo unspecified), the EC50 was 4.16 µM. As for `CCc1ccc(S(=O)(=O)/N=C2\C=C(Nc3cccc(C(=O)O)c3)C(=O)c3ccccc32)cc1`, the EC50 was 1.71 µM.

On to `Cn1c(O)c(N=Nc2nc(-c3ccccc3)cs2)c2ccccc21`, for which the EC50 was 1.2 µM. To `C=C1c2cccc(O)c2C(O)=C2C(=O)[C@]3(O)C(O)=C(C(N)=O)C(=O)[C@@H](N(C)C)[C@@H]3[C@@H](O)[C@H]12` belongs 0.093 µM; to `CCc1nnc(NC(=O)c2sc3nc4cc(C)ccc4cc3c2N)s1`, 3.77 µM; to `NC(=S)N/N=C\c1c(OCc2ccccc2Cl)ccc2ccccc12`, 2.53 µM.

Regarding `c1ccc(-c2nnc(-c3ccccn3)nc2NC2CCCCC2)cc1`, the EC50 is 2.95 µM.

On to `C=CC1=C(C(=O)O)N2C(=O)[C@@H](NC(=O)/C(=N/OCC(=O)O)c3csc(N)n3)[C@H]2SC1`, for which the EC50 is less than 0.06 µM.

On to `CCn1c(=O)c(C(=O)NNC(=O)Cc2ccccc2)c(O)c2ccccc21`, for which the half-maximal effective concentration (EC50) was 4.71 µM. Regarding `CC(C)c1ccc(-c2nc(N3CCCC3)nc3n[nH]c(N)c23)cc1`, the EC50 was 8.74 µM. Regarding `COc1cc(C(=O)NNC(=S)NC(=O)c2ccc3c(c2)OCO3)cc(OC)c1OC`, the EC50 is 1.63 µM.

In the case of `O=C(NC(=S)Nc1ccc(N2CCOCC2)c(Cl)c1)c1cccs1`, the EC50 was 9.89 µM. As for `CCOc1cc(/C=C2\C(=O)N(c3nc(-c4ccc(Br)cc4)cs3)N=C2c2ccccc2)ccc1O`, the EC50 was 1.77 µM. Regarding `CCCCNc1c(-c2ccc(SC(C)CC)c(OC)c2)nc2ccc(C)cn12` (stereo unspecified), the EC50 was 3.46 µM. In the case of `Cn1c(-c2cc(Br)ccc2O)n[nH]c1=S`, the half-maximal effective concentration (EC50) was 9.92 µM.

With `CCC(C)Sc1cc(-c2nc3ccccn3c2NC2CCCCC2)ccc1OC` (stereo unspecified), the EC50 is 2.94 µM. For `CCCCCCCCCCC[N+](C)(C)CC/C=C1/c2ccccc2Sc2ccc(Cl)cc21`, the EC50 was 2.4 µM.

Regarding `CC(C)(C)c1ccc(C(=O)NCc2nnc(SCC(=O)NC3CCCC3)o2)cc1`, the EC50 is > 15 µM (inactive). For `CCc1nnc(NC(=O)c2cccc(C(=O)Nc3nnc(CC)s3)n2)s1`, the EC50 was 0.961 µM. To `CCCCn1c(O)c(C(C)=Nc2ccc(OCC)cc2)c(=O)[nH]c1=O` belongs 9.75 µM; to `C[C@H]1COc2c(C3(N)CC3)c(F)cc3c(=O)c(C(=O)O)cn1c23`, 6.2 µM.

With `Cc1cc(C)c(S(=O)(=O)/N=C2\C=C(Nc3ccc(C(=O)O)cc3)C(=O)c3ccccc32)c(C)c1`, the EC50 was 1.16 µM. `CCCCCCCCCCCCCCCC[N+](C)(C)C`: the EC50 was 3.02 µM.

With `Fc1cccc2sc(Nc3nnc(-c4ccccc4)o3)nc12`, the EC50 is 0.824 µM. Consider `CCOC(=O)c1cnc(-n2cc(C)cn2)nc1Nc1ccccc1OCC`, for which the EC50 is 4.18 µM. Take `CC1CC(=O)c2c(cc3c(-c4c(O)cc(O)c5c(O)c6c(cc45)OC(C)CC6=O)c(O)cc(O)c3c2O)O1` (stereo unspecified): the EC50 was 0.501 µM. The figure for `CC(C)C[C@H](NC(=O)c1[nH]cnc1C(=O)N[C@@H](C)C(=O)OC(C)(C)C)C(=O)OCc1ccccc1` is 7.06 µM. The figure for `CC(C)Cn1c(N)c(C(=O)NCc2cccs2)c2nc3ccccc3nc21` is 5.37 µM; for `O=C1C(Cl)=C(Nc2ccc3cn[nH]c3c2)C(=O)c2ccccc21` it is 2.21 µM; for `O=C(CN1CCc2ccccc2C1)Nc1ccccc1N1CCCCCC1` it is 2.42 µM. Take `CCOc1ccc(NC(=O)c2ccc3c(=O)n(-c4ccc(OC)cc4OC)c(=S)[nH]c3c2)cc1`: the EC50 was 7.86 µM. On to `Cc1cc2n(n1)C(c1c[nH]c3ccccc13)Nc1ccccc1-2` (stereo unspecified), for which the EC50 is 7.65 µM. Take `O=C(NCC1CCCO1)c1cc2c([nH]c3ccccc32)c(-c2cccc(Cl)c2)n1` (stereo unspecified): the EC50 is 4.27 µM. On to `CC(C)c1ccccc1OCC(O)CN(CC(O)COc1cccc2ccccc12)C(C)C` (stereo unspecified), for which the EC50 is 4.24 µM. `Cc1ccc(/C(O)=C/C(=O)C(=O)NC23CC4CC(CC(C4)C2)C3)cc1`: the EC50 was 2.06 µM. With `CSc1n[nH]c2nc3c(c(=O)n12)C1(CCCCC1)Cc1ccccc1-3`, the half-maximal effective concentration (EC50) was 10.5 µM.

The values above are taken from PubChem BioAssay AID1902 (Broad Institute, 2009).
